Data reported in patent US8999970B2, “Administration of an anti-obesity compound to individuals with renal impairment” (Arena Pharmaceuticals, Inc., priority 2010, dated 2015).
“Also recorded” adds a separate entry of the source.

Columns and labels:
[1] = Clinical trial APD356-016: plasma and urine pharmacokinetics of lorcaserin, M1 and M5 after a 10 mg dose in subjects with renal impairment; settings: for Ae0-120 / fe0-120: urine; for AUC24 hr / Cmax / t1/2: 10 mg QD Authentic, Day 1
Outline: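 Single 10 mg lorcaserin dose in subjects grouped by renal function; plasma and urine sampled for lorcaserin, M1 and M5. Groups set by creatinine clearance from ideal body weight, with actual-weight regrouping also summarised; the dialysis subject counted as end-stage renal disease.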

[2] = system: panel of receptors, ion channels and transporters; assay: Pharmacological activity of metabolites at a panel of receptors, ion channels and transporters
[3] = Preclinical toxicology: M1 and M5 pharmacokinetics after oral administration of lorcaserin, 52 wk, rats
[4] = 10 mg dose, Mild, actual BW groups
[5] = 10 mg dose, Mild, ideal BW groups
[6] = 10 mg dose, Moderate, actual BW groups
[7] = 10 mg dose, Moderate, ideal BW groups
[8] = 10 mg dose, Normal, actual BW groups
[9] = 10 mg dose, Normal, ideal BW groups
[10] = 10 mg dose, Severe N = 1, actual BW groups
[11] = 10 mg dose, Severe, ideal BW groups
[12] = lorcaserin 10 mg/kg/day oral, F
[13] = lorcaserin 10 mg/kg/day oral, M
[14] = lorcaserin 30 mg/kg/day oral, F
[15] = lorcaserin 30 mg/kg/day oral, M
[16] = lorcaserin 100 mg/kg/day oral, F
[17] = lorcaserin 100 mg/kg/day oral, M

In the case of `C[C@H]1CN(S(=O)(=O)O)CCc2ccc(Cl)cc21` [Compound M1, lorcaserin sulfamate], the “% AUC0-inf Extrapolated” value [1, 4] is reported as 4.54%, the ClNR/F [1, 4] is reported as 16.7 L/h and the T1/2z [1, 4] is reported as 14.6 h. For the same molecule, the “% AUC0-inf Extrapolated” value [1, 5] was 3.36%, the ClNR/F [1, 5] was 12.8 L/h and the T1/2z [1, 5] was 13.0 h. The “% AUC0-inf Extrapolated” value [1, 6] was 3.74%, the ClNR/F [1, 6] was 18.2 L/h and the T1/2z [1, 6] was 14.9 h. The “% AUC0-inf Extrapolated” value [1, 7] was 4.92%, the ClNR/F [1, 7] was 17.0 L/h and the T1/2z [1, 7] was 15.9 h. The “% AUC0-inf Extrapolated” value [1, 8] was 3.57%, the ClNR/F [1, 8] was 15.1 L/h and the T1/2z [1, 8] was 12.1 h. For the same molecule, the “% AUC0-inf Extrapolated” value [1, 9] was 3.81%, the ClNR/F [1, 9] was 17.1 L/h and the T1/2z [1, 9] was 11.0 h. For the same molecule, the “% AUC0-inf Extrapolated” value [1, 10] was 3.70%, the ClNR/F [1, 10] was 17.2 L/h and the T1/2z [1, 10] was 18.8 h. The “% AUC0-inf Extrapolated” value [1, 11] was 3.59%, the AUC0-inf [1, 11] was 23.6 µg·h/mL and the ClNR/F [1, 11] was 19.0 L/h. The T1/2z [1, 11] was 15.0 h, the Ae0-120 [1, 4] was 297 µg and the fe0-120 [1, 4] was 0.0352. It also gave an Ae0-120 [1, 5] of 326 µg, a fe0-120 [1, 5] of 0.0386 and an Ae0-120 [1, 6] of 304 µg. It also gave a fe0-120 [1, 6] of 0.0360, an Ae0-120 [1, 7] of 327 µg and a fe0-120 [1, 7] of 0.0387. The Ae0-120 [1, 8] was 257 µg, the fe0-120 [1, 8] was 0.0304 and the Ae0-120 [1, 9] was 185 µg. The fe0-120 [1, 9] was 0.0220, the Ae0-120 [1, 10] was 204 µg and the fe0-120 [1, 10] was 0.0242. For the same molecule, the Ae0-120 [1, 11] was 280 µg, the fe0-120 [1, 11] was 0.0332 and the Removal by hemodialysis ([1]; ESRD) was “not removed; also recorded: not cleared”. The AUC24 hr ([1]; ESRD) was 3650 ng·h/mL, the Cmax ([1]; ESRD) was 67.6 ng/mL and the AUC24 hr ([1]; Mild) was 1940 ng·h/mL. The Cmax ([1]; Mild) was 43.5 ng/mL, the t1/2 ([1]; Mild) was 45.5 h and the AUC24 hr ([1]; Moderate) was 2240 ng·h/mL. For the same molecule, the Cmax ([1]; Moderate) was 34.1 ng/mL, the t1/2 ([1]; Moderate) was 70.8 h and the AUC24 hr ([1]; Normal) was 1270 ng·h/mL. It also gave a Cmax ([1]; Normal) of 33.6 ng/mL, a t1/2 ([1]; Normal) of 36.2 h and an AUC24 hr ([1]; Severe) of 7850 ng·h/mL. For the same molecule, the Cmax ([1]; Severe) was 103 ng/mL, the t1/2 ([1]; Severe) was 220 h and the “Exposure (Geometric Mean Ratio for AUCinf) increase compared to normal subjects” value ([1]; mild (CLcr=51-80 mL/min)) was 1.6 fold. For the same molecule, the “Terminal half-life prolonged by” value ([1]; mild renal impairment) was 26%, the “Exposure (Geometric Mean Ratio for AUCinf) increase compared to normal subjects” value ([1]; moderate (CLcr=31-50 mL/min)) was 2.3 fold and the “Terminal half-life prolonged by” value ([1]; moderate renal impairment) was 96%. For the same molecule, the “Exposure (Geometric Mean Ratio for AUCinf) increase compared to normal subjects” value ([1]; severe (CLcr=5-30 mL/min)) was 16.7 fold, the “Maximum individual Cmax relative to the mean Cmax” value ([1]; severe renal impairment) was “more than five times” and the “Terminal half-life prolonged by” value ([1]; severe renal impairment) was 508%. The “AUC0-inf of subject 3285-009” value ([1]; severe renal impairment (ideal BW)) was 101 µg·h/mL, the Mean plasma concentration ([1]; severe renal impairment, eight individuals, day 1, 4 hours) was 99.5 ng/mL and the “Plasma concentration (Cmax) of subject 3285-009” value ([1]; severe renal impairment, day 1, 4 hours) was 542 ng/mL. The “Activity at serotonin receptors or at a panel of more than 60 GPCRs, transporters and ion channels” value [2] was “neither metabolite is active”, the “Pharmacological activity against a panel of receptors, ion channels and transporters” value ([2]; concentration of 10 μM) was “pharmacologically inactive” and the AUC0-inf [3, 12] was 200 µg·h/mL. It also gave an AUClast [3, 12] of 193 µg·h/mL, a Cmax [3, 12] of 16.3 µg/mL and a tmax [3, 12] of 1.0 h. For the same molecule, the AUC0-inf [3, 13] was 175 µg·h/mL, the AUClast [3, 13] was 170 µg·h/mL and the Cmax [3, 13] was 15.4 µg/mL. The tmax [3, 13] was 1.0 h, the AUC0-inf [3, 14] was 443 µg·h/mL and the AUClast [3, 14] was 412 µg·h/mL. The Cmax [3, 14] was 31.7 µg/mL, the tmax [3, 14] was 4.0 h and the AUC0-inf [3, 15] was 338 µg·h/mL. The AUClast [3, 15] was 319 µg·h/mL, the Cmax [3, 15] was 23.9 µg/mL and the tmax [3, 15] was 1.0 h. For the same molecule, the AUC0-inf [3, 16] was 1480 µg·h/mL, the AUClast [3, 16] was 1050 µg·h/mL and the Cmax [3, 16] was 63.7 µg/mL. It also gave a tmax [3, 16] of 2.0 h, an AUC0-inf [3, 17] of 927 µg·h/mL and an AUClast [3, 17] of 633 µg·h/mL. It also gave a Cmax [3, 17] of 36.0 µg/mL and a tmax [3, 17] of 0.5 h.
